Literature values as cited in patent publication US12404524B2, “Expression vector” (priority 2019, dated 2025).

Test system: common Streptomyces expression strains
Conditions: inducers of Potr and PnitA in single-gene expression experiments

SMILES: O=C1CCCCCN1 [ε-caprolactam]
- effect on physiology or growth rate: no effect

SMILES: CN(C)[C@@H]1C(O)=C(C(N)=O)C(=O)[C@@]2(O)C(O)=C3C(=O)c4c(O)cccc4[C@@](C)(O)[C@H]3[C@H](O)[C@@H]12 [oxytetracycline]
- effect on physiology or growth rate: no effect
